In patent publication US8101550B2, “Anthranilic acid diamide derivative with hetero-aromatic and hetero-cyclic substituents” (Bayer Cropscience AG, priority 2006, dated 2012) one finds logP data, which are given here for 59 molecules.

This data set is described as follows: log P determination by HPLC on reverse-phase column (EEC Directive 79/831 Annex V.A8). The class given is physicochemical. The method, boiled down:
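Reverse-phase C18 HPLC at 43 °C, following EEC Directive 79/831 Annex V.A8. Acidic LC-MS used pH 2.7 eluents (0.1% aqueous formic acid and acetonitrile with 0.1% formic acid) on a 10–95% acetonitrile linear gradient. Log P was interpolated linearly from retention times against unbranched C3–C16 alkan-2-ones of known log P.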
Consider `CC(C)NC(=O)c1cc(Cl)cc(Cl)c1NC(=O)c1cc(Cn2nc(C(F)(F)F)nc2C(F)(F)F)nn1-c1ncccc1Cl` [I-1-291], for which the logP (as a rule, a log measure of how a compound divides between an organic and an aqueous phase) worked out at 3.76.

`N#CCNC(=O)c1cc(Cl)cc(Cl)c1NC(=O)c1cc(Cn2nc(C(F)(F)F)nc2C(F)(F)F)nn1-c1ncccc1Cl` [I-1-292] came in with a logP of 2.83. For `O=C(NCC1CC1)c1cc(Cl)cc(Cl)c1NC(=O)c1cc(Cn2nc(C(F)(F)F)nc2C(F)(F)F)nn1-c1ncccc1Cl` [I-1-293] the value was 3.22; for `CC(C)NC(=O)c1cc(Cl)cc(Cl)c1NC(=O)c1cc(Cn2cc(C(F)(F)C(F)(F)F)c(C(F)(F)C(F)(F)F)n2)nn1-c1ncccc1Cl` [I-1-294], 4.00; for `O=C(NC1CC1)c1cc(Cl)cc(Cl)c1NC(=O)c1cc(Cn2nc(C(F)(F)F)nc2C(F)(F)F)nn1-c1ncccc1Cl` [I-1-295], 2.95. For `NC(=O)c1cc(Cl)cc(Cl)c1NC(=O)c1cc(Cn2cc(C(F)(F)C(F)(F)F)c(C(F)(F)C(F)(F)F)n2)nn1-c1ncccc1Cl` [I-1-296] the value was 3.43; for `CNC(=O)c1cc(Cl)cc(Cl)c1NC(=O)c1cc(Cn2cc(C(F)(F)C(F)(F)F)c(C(F)(F)C(F)(F)F)n2)nn1-c1ncccc1Cl` [I-1-297], 3.59; for `NC(=O)c1cc(Cl)cc(Cl)c1NC(=O)c1cc(Cn2nc(C(F)(F)F)nc2C(F)(F)F)nn1-c1ncccc1Cl` [I-1-298], 2.61. Next, `N#CCNC(=O)c1cc(Cl)cc(Cl)c1NC(=O)c1cc(Cn2cc(C(F)(F)C(F)(F)F)c(C(F)(F)C(F)(F)F)n2)nn1-c1ncccc1Cl` [I-1-299]: 3.53. Turning to `O=C(NC1CC1)c1cc(Cl)cc(Cl)c1NC(=O)c1cc(Cn2nc(C(F)(F)F)cc2C(F)(F)F)nn1-c1ncccc1Cl` [I-1-300], the logP amounted to 3.19. Next, `CC(C)NC(=O)c1cc(Cl)cc(Cl)c1NC(=O)c1cc(Cc2ccoc2)nn1-c1ncccc1Cl` [I-1-301]: 2.60; `NC(=O)c1cc(Cl)cc(Cl)c1NC(=O)c1cc(Cn2nc(C(F)(F)F)cc2C(F)(F)F)nn1-c1ncccc1Cl` [I-1-302]: 2.80. Next, `N#CCNC(=O)c1cc(Cl)cc(Cl)c1NC(=O)c1cc(Cn2nc(C(F)(F)F)cc2C(F)(F)F)nn1-c1ncccc1Cl` [I-1-303]: 2.98. `CNC(=O)c1cc(Cl)cc(Cl)c1NC(=O)c1cc(Cn2nc(C(F)(F)F)cc2C(F)(F)F)nn1-c1ncccc1Cl` [I-1-304] returned a logP of 3.01. Take `CC(C)NC(=O)c1cc(Cl)cc(Cl)c1NC(=O)c1cc(Cn2nc(C(F)(F)F)cc2C(F)(F)F)nn1-c1ncccc1Cl` [I-1-305]: the logP is given as 3.40. In turn, `CNC(=O)c1cc(Cl)cc(Cl)c1NC(=O)c1cc(Cc2ccoc2)nn1-c1ncccc1Cl` [I-1-306] showed a logP of 2.18.

Molecule `NC(=O)c1cc(Cl)cc(Cl)c1NC(=O)c1cc(Cn2cc(Cl)c(C(F)(F)C(F)(F)F)n2)nn1-c1ncccc1Cl` [I-1-307] showed a logP of 2.95. Next, `CNC(=O)c1cc(Cl)cc(Cl)c1NC(=O)c1cc(Cn2cc(Cl)c(C(F)(F)C(F)(F)F)n2)nn1-c1ncccc1Cl` [I-1-308]: 3.18; `CC(C)NC(=O)c1cc(Cl)cc(Cl)c1NC(=O)c1cc(Cn2cc(Cl)c(C(F)(F)C(F)(F)F)n2)nn1-c1ncccc1Cl` [I-1-309]: 3.53. Turning to `N#CCNC(=O)c1cc(Cl)cc(Cl)c1NC(=O)c1cc(Cn2cc(Cl)c(C(F)(F)C(F)(F)F)n2)nn1-c1ncccc1Cl` [I-1-310], the logP is given as 3.13. Next, `NC(=O)c1cc(Cl)cc(Cl)c1NC(=O)c1cc(Cn2ccc(C(F)(F)F)n2)nn1-c1ncccc1Cl` [I-1-311]: 2.21; `CNC(=O)c1cc(Cl)cc(Cl)c1NC(=O)c1cc(Cn2ccc(C(F)(F)F)n2)nn1-c1ncccc1Cl` [I-1-312]: 2.37; `N#CCNC(=O)c1cc(Cl)cc(Cl)c1NC(=O)c1cc(Cn2ccc(C(F)(F)F)n2)nn1-c1ncccc1Cl` [I-1-313]: 2.43. For `CC(C)NC(=O)c1cc(Cl)cc(Cl)c1NC(=O)c1cc(Cn2ccc(C(F)(F)F)n2)nn1-c1ncccc1Cl` [I-1-314] the value was 2.77. The molecule `O=C(NC1CC1)c1cc(Cl)cc(Cl)c1NC(=O)c1cc(Cn2ccc(C(F)(F)F)n2)nn1-c1ncccc1Cl` [I-1-315] displayed a logP of 2.54. Next, `CNC(=O)c1cc(Cl)cc(Cl)c1NC(=O)c1cc(Cc2cccnc2)nn1-c1ncccc1Cl` [I-1-316]: 1.03; `CC(C)NC(=O)c1cc(Cl)cc(Cl)c1NC(=O)c1cc(Cc2cccnc2)nn1-c1ncccc1Cl` [I-1-317]: 1.31. `CC(C)NC(=O)c1cc(Cl)cc(Cl)c1NC(=O)c1cc(Cc2cncnc2)nn1-c1ncccc1Cl` [I-1-318] showed a logP of 1.62. Take `NC(=O)c1cc(Cl)cc(Cl)c1NC(=O)c1cc(Cc2cncnc2)nn1-c1ncccc1Cl` [I-1-319]: the logP came to 2.02. Next, `N#CCNC(=O)c1cc(Cl)cc(Cl)c1NC(=O)c1cc(Cc2cncnc2)nn1-c1ncccc1Cl` [I-1-320]: 1.49; `CNC(=O)c1cc(Cl)cc(Cl)c1NC(=O)c1cc(Cc2cncnc2)nn1-c1ncccc1Cl` [I-1-321]: 1.41.

In turn, `CNC(=O)c1cc(Cl)cc(Cl)c1NC(=O)c1cc(Cc2c(C)noc2C)nn1-c1ncccc1Cl` [I-1-322] registered a logP of 1.94.

Take `Cc1cc(Cl)cc(C(=O)NC(C)C)c1NC(=O)c1cc(Cn2cnc(C(F)(F)C(F)(F)F)n2)nn1-c1ncccc1Cl` [I-1-323]: the logP is 3.01. For `C[C@@H](C[S+](C)[O-])NC(=O)c1cc(Cl)cc(Cl)c1NC(=O)c1cc(Cn2cc(C(F)(F)C(F)(F)F)c(C(F)(F)C(F)(F)F)n2)nn1-c1ncccc1Cl` (some centres unmarked) [I-1-325] the value was 3.54; for `CNC(=O)c1cc(Cl)cc(Cl)c1NC(=O)c1cc(Cn2cnc(C(F)(F)C(F)(F)F)n2)nn1-c1ncccc1Cl` [I-1-326], 2.55. Next, `CC(C)NC(=O)c1cc(Cl)cc(Cl)c1NC(=O)c1cc(Cn2cnc(C(F)(F)C(F)(F)F)n2)nn1-c1ncccc1Cl` [I-1-327]: 2.97; `C[C@@H](CS(C)(=O)=O)NC(=O)c1cc(Cl)cc(Cl)c1NC(=O)c1cc(Cn2cc(C(F)(F)C(F)(F)F)c(C(F)(F)C(F)(F)F)n2)nn1-c1ncccc1Cl` [I-1-328]: 3.63. Next, `CNC(=O)c1cc(Cl)cc(C)c1NC(=O)c1cc(Cn2cnc(C(F)(F)C(F)(F)F)n2)nn1-c1ncccc1Cl` [I-1-329]: 2.57. For `Cc1cc(Cl)cc(C(N)=O)c1NC(=O)c1cc(Cn2cnc(C(F)(F)C(F)(F)F)n2)nn1-c1ncccc1Cl` [I-1-330], the logP worked out at 2.39. Next, `Cc1cc(Cl)cc(C(=O)NC2CC2)c1NC(=O)c1cc(Cn2cnc(C(F)(F)C(F)(F)F)n2)nn1-c1ncccc1Cl` [I-1-331]: 2.78; `Cc1cc(Cl)cc(C(=O)NCC#N)c1NC(=O)c1cc(Cn2cnc(C(F)(F)C(F)(F)F)n2)nn1-c1ncccc1Cl` [I-1-332]: 2.59. Next, `CNC(=O)c1cc(C#N)cc(C)c1NC(=O)c1cc(Cn2cnc(C(F)(F)C(F)(F)F)n2)nn1-c1ncccc1Cl` [I-1-333]: 2.25; `Cc1cc(Cl)cc(C(=O)NC(C)C)c1NC(=O)c1cc(Cn2cnc(C(F)(F)C(F)(F)F)n2)nn1-c1ncccc1Cl` [I-1-334]: 2.66. Next, `O=C(NC1CC1)c1cc(Cl)cc(Cl)c1NC(=O)c1cc(Cn2cnc(C(F)(F)C(F)(F)F)n2)nn1-c1ncccc1Cl` [I-1-335]: 2.69; `NC(=O)c1cc(Cl)cc(Cl)c1NC(=O)c1cc(Cn2cnc(C(F)(F)C(F)(F)F)n2)nn1-c1ncccc1Cl` [I-1-336]: 2.32. The molecule `N#CCNC(=O)c1cc(Cl)cc(Cl)c1NC(=O)c1cc(Cn2cnc(C(F)(F)C(F)(F)F)n2)nn1-c1ncccc1Cl` [I-1-337] gave a logP of 2.56. In turn, `Cc1cc(C#N)cc(C(=O)NC2CC2)c1NC(=O)c1cc(Cn2cnc(C(F)(F)C(F)(F)F)n2)nn1-c1ncccc1Cl` [I-1-338] returned a logP of 2.45.

In turn, `Cc1cc(C#N)cc(C(N)=O)c1NC(=O)c1cc(Cn2cnc(C(F)(F)C(F)(F)F)n2)nn1-c1ncccc1Cl` [I-1-339] yielded a logP of 2.11. With `CC(C)NC(=O)c1cc(Cl)cc(Cl)c1NC(=O)c1cc(Cn2cnc(C(F)(F)C(F)(F)F)n2)nn1-c1ncccc1Cl` [I-1-340], the logP is given as 2.55. Next, `Cc1cc(Cl)cc(C(=O)NC(C)C)c1NC(=O)c1cc(Cn2cnc(C(F)(F)C(F)(F)F)n2)nn1-c1ncccc1Cl` [I-1-341]: 2.63; `CNC(=O)c1cc(Cl)cc(Cl)c1NC(=O)c1cc(Cn2cnc(C(F)(F)C(F)(F)F)n2)nn1-c1ncccc1Cl` [I-1-342]: 2.15. For `Cc1cc(Cl)cc(C(N)=O)c1NC(=O)c1cc(Cn2cnc(C(F)(F)C(F)(F)F)n2)nn1-c1ncccc1Cl` [I-1-343] the value was 2.02; for `O=C(NC1CC1)c1cc(Cl)cc(Cl)c1NC(=O)c1cc(Cn2cnc(C(F)(F)C(F)(F)F)n2)nn1-c1ncccc1Cl` [I-1-344], 2.37; for `Cc1cc(Cl)cc(C(=O)NC2CC2)c1NC(=O)c1cc(Cn2cnc(C(F)(F)C(F)(F)F)n2)nn1-c1ncccc1Cl` [I-1-345], 2.42. For `NC(=O)c1cc(Cl)cc(Cl)c1NC(=O)c1cc(Cn2cnc(C(F)(F)C(F)(F)F)n2)nn1-c1ncccc1Cl` [I-1-346] the value was 2.01. As to `CNC(=O)c1cc(Cl)cc(C)c1NC(=O)c1cc(Cn2cnc(C(F)(F)C(F)(F)F)n2)nn1-c1ncccc1Cl` [I-1-347], the logP is reported as 2.19. `Cc1cc(Cl)cc(C(=O)NCC#N)c1NC(=O)c1cc(Cn2cnc(C(F)(F)C(F)(F)F)n2)nn1-c1ncccc1Cl` [I-1-348] gave a logP of 2.21. As to `N#CCNC(=O)c1cc(Cl)cc(Cl)c1NC(=O)c1cc(Cn2cnc(C(F)(F)C(F)(F)F)n2)nn1-c1ncccc1Cl` [I-1-349], the logP was 2.19. Take `Cc1cc(C#N)cc(C(N)=O)c1NC(=O)c1cc(Cn2cnc(C(F)(F)C(F)(F)F)n2)nn1-c1ncccc1Cl` [I-1-350]: the logP was 1.75.
